Several values for one entry are separate records, joined by “and”; a condition that tells them apart may be missing. Equal values may be shown once. Toxic doses and inconclusive results are not listed.
Test system: CD2F1 mice, L1210 leukemia ip, survival T/C
Assay: NCI In Vivo Anticancer Drug Screen. Data for tumor model L1210 Leukemia (intraperitoneal) in CD2F1 (CDF1) mice
Conditions: higher = longer survival
Procedure, shortened: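 Implant tumor; dose compound or vehicle; measure endpoint in both groups; report treated divided by control.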

[1] = endpoint: mean survival time, dose: 100.0 mg/kg/injection, schedule: Q04DX003 (ip), vehicle: saline with Tween-80
[2] = endpoint: mean survival time, dose: 100.0 mg/kg/injection, schedule: Q04DX002 (ip), vehicle: saline with Tween-80
[3] = endpoint: mean survival time, dose: 200.0 mg/kg/injection, schedule: Q04DX002 (ip), vehicle: saline with Tween-80
[4] = endpoint: mean survival time, dose: 400.0 mg/kg/injection, schedule: Q04DX002 (ip), vehicle: saline with Tween-80
[5] = endpoint: mean survival time, dose: 100.0 mg/kg/injection, schedule: Q01DX001 (ip), vehicle: saline with Tween-80
[6] = endpoint: mean survival time, dose: 200.0 mg/kg/injection, schedule: Q01DX001 (ip), vehicle: saline with Tween-80
[7] = endpoint: mean survival time, dose: 400.0 mg/kg/injection, schedule: Q01DX001 (ip), vehicle: saline with Tween-80
[8] = endpoint: mean survival time, dose: 200.0 mg/kg/injection, schedule: Q04DX003 (ip), vehicle: saline with Tween-80
[9] = endpoint: mean survival time, dose: 400.0 mg/kg/injection, schedule: Q04DX003 (ip), vehicle: saline with Tween-80

CCOc1ccc(-c2nc3ccc(-c4nc5ccc(N6CCN(C)CC6)cc5[nH]4)cc3[nH]2)cc1
T/C (endpoint: median survival time, dose: 0.75 mg/kg/injection, schedule: Q01DX009 (ip), vehicle: saline): 112 % of control | T/C (endpoint: median survival time, dose: 0.75 mg/kg/injection, schedule: Q01DX009 (ip), vehicle: suspension in saline): 94 % of control | T/C (endpoint: median survival time, dose: 1.5 mg/kg/injection, schedule: Q01DX009 (ip), vehicle: saline): 112 % of control | T/C (endpoint: median survival time, dose: 1.5 mg/kg/injection, schedule: Q01DX009 (ip), vehicle: suspension in saline): 95 % of control | T/C (endpoint: median survival time, dose: 3.0 mg/kg/injection, schedule: Q01DX009 (ip), vehicle: suspension in saline): 104 % of control | T/C (endpoint: median survival time, dose: 6.0 mg/kg/injection, schedule: Q01DX009 (ip), vehicle: suspension in saline): 105 % of control | T/C (endpoint: median survival time, dose: 12.0 mg/kg/injection, schedule: Q01DX009 (ip), vehicle: suspension in saline): 104 % of control | T/C (endpoint: median survival time, dose: 24.0 mg/kg/injection, schedule: Q01DX009 (ip), vehicle: saline): 118 % of control | T/C (endpoint: median survival time, dose: 24.0 mg/kg/injection, schedule: Q01DX009 (ip), vehicle: suspension in saline): 117 % of control

CCN(CC)C1=CC(=O)c2ccccc2C1=O
T/C (endpoint: mean survival time, dose: 25.0 mg/kg/injection, schedule: Q04DX003 (ip), vehicle: saline with Tween-80): 102 % of control | T/C (endpoint: mean survival time, dose: 50.0 mg/kg/injection, schedule: Q04DX003 (ip), vehicle: saline with Tween-80): 96 % of control | T/C [1]: 103 % of control

COc1ccc(C(OCC2OC(n3ccc(NC(=O)c4ccccc4)nc3=O)C(O)C2O)(c2ccccc2)c2ccccc2)cc1 (centres undefined)
T/C (endpoint: median survival time, dose: 12.5 mg/kg/injection, schedule: Q01DX005 (ip), vehicle: saline with Tween-80): 100 % of control | T/C (endpoint: median survival time, dose: 25.0 mg/kg/injection, schedule: Q01DX005 (ip), vehicle: saline with Tween-80): 104 % of control | T/C (endpoint: median survival time, dose: 50.0 mg/kg/injection, schedule: Q01DX005 (ip), vehicle: saline with Tween-80): 104 % of control | T/C (endpoint: median survival time, dose: 100.0 mg/kg/injection, schedule: Q01DX005 (ip), vehicle: saline with Tween-80): 98 % of control | T/C (endpoint: median survival time, dose: 200.0 mg/kg/injection, schedule: Q01DX005 (ip), vehicle: saline with Tween-80): 95 % of control

NC(=O)c1ccc([N+](=O)[O-])cc1Cl
T/C [2]: 102 % of control | T/C [3]: 94 % of control | T/C [4]: 94 % of control

NC(=N\O)/C(N)=N/O.[Cl][Pt][Cl]
T/C (endpoint: median survival time, dose: 3.12 mg/kg/injection, schedule: Q04DX003 (ip), vehicle: saline): 100 % of control | T/C (endpoint: median survival time, dose: 6.25 mg/kg/injection, schedule: Q04DX003 (ip), vehicle: saline): 103 % of control | T/C (endpoint: median survival time, dose: 12.5 mg/kg/injection, schedule: Q04DX003 (ip), vehicle: saline): 97 % of control | T/C (endpoint: median survival time, dose: 25.0 mg/kg/injection, schedule: Q04DX003 (ip), vehicle: saline): 103 % of control | T/C (endpoint: median survival time, dose: 50.0 mg/kg/injection, schedule: Q04DX003 (ip), vehicle: saline): 109 % of control | T/C (endpoint: median survival time, dose: 100.0 mg/kg/injection, schedule: Q04DX003 (ip), vehicle: saline): 112 % of control | T/C (endpoint: median survival time, dose: 200.0 mg/kg/injection, schedule: Q04DX003 (ip), vehicle: saline): 123 % of control

O=[N+]([O-])c1ccc(C2Nc3cc(Cl)c(Cl)cc3S(=O)(=O)N2O)cc1 (centres undefined)
T/C [5]: 97 % of control | T/C [2]: 107 % of control | T/C [6]: 96 % of control | T/C [3]: 107 % of control | T/C [7]: 96 % of control | T/C [4]: 103 % of control

Cc1ccc(S(=O)(=O)Nc2cccc3c(NS(=O)(=O)c4ccc(C)cc4)cccc23)cc1
T/C [1]: 96 % of control | T/C [8]: 100 % of control | T/C [9]: 96 % of control

Cc1cccnc1NC1=NCCO1
T/C [1]: 101 % of control | T/C [8]: 98 % of control | T/C [9]: 98 % of control

CCOC(=O)C1=C(C)O/C(=C/c2cccc(Cl)c2)C1=O
T/C (endpoint: median survival time, dose: 50.0 mg/kg/injection, schedule: Q01DX009 (ip), vehicle: saline with Tween-80): 107 % of control | T/C (endpoint: median survival time, dose: 100.0 mg/kg/injection, schedule: Q01DX009 (ip), vehicle: saline with Tween-80): 110 % of control | T/C (endpoint: median survival time, dose: 200.0 mg/kg/injection, schedule: Q01DX009 (ip), vehicle: saline with Tween-80): 112 % of control

CN(C)CC1CCCCCC(CN(C)C)C1=O (centres undefined)
T/C (endpoint: mean survival time, dose: 75.0 mg/kg/injection, schedule: Q01DX001 (ip), vehicle: other): 102 % of control | T/C (endpoint: mean survival time, dose: 150.0 mg/kg/injection, schedule: Q01DX001 (ip), vehicle: other): 106 % of control

CCOC(=O)CCC(NC(=O)C(CSC(c1ccccc1)(c1ccccc1)c1ccccc1)NC(c1ccccc1)(c1ccccc1)c1ccccc1)C(=O)OCC (centres undefined)
T/C (endpoint: mean survival time, dose: 25.0 mg/kg/injection, schedule: Q01DX009 (ip), vehicle: saline): 93 % of control | T/C (endpoint: mean survival time, dose: 50.0 mg/kg/injection, schedule: Q01DX009 (ip), vehicle: saline): 100 % of control | T/C (endpoint: mean survival time, dose: 100.0 mg/kg/injection, schedule: Q01DX009 (ip), vehicle: saline): 96 % of control | T/C (endpoint: mean survival time, dose: 200.0 mg/kg/injection, schedule: Q01DX009 (ip), vehicle: saline): 96 % of control | T/C (endpoint: mean survival time, dose: 400.0 mg/kg/injection, schedule: Q01DX009 (ip), vehicle: saline): 96 % of control

Nc1ccc(C(=O)Nc2ccc(OCc3nc(N)nc(N)c3-c3ccc(Cl)cc3)cc2)cc1
T/C [5]: 97 % of control | T/C [6]: 93 % of control | T/C [7]: 95 % of control

COc1ccc2c(oc(=O)c3c(Cl)nc(C)c(C)c32)c1OC
T/C (endpoint: mean survival time, dose: 25.0 mg/kg/injection, schedule: Q01DX009 (ip), vehicle: Klucel (hydroxypropylcellulose) (HPC)): 102 % of control | T/C (endpoint: mean survival time, dose: 50.0 mg/kg/injection, schedule: Q01DX009 (ip), vehicle: Klucel (hydroxypropylcellulose) (HPC)): 95 % of control | T/C (endpoint: mean survival time, dose: 100.0 mg/kg/injection, schedule: Q01DX009 (ip), vehicle: Klucel (hydroxypropylcellulose) (HPC)): 93 % of control | T/C (endpoint: mean survival time, dose: 200.0 mg/kg/injection, schedule: Q01DX009 (ip), vehicle: Klucel (hydroxypropylcellulose) (HPC)): 93 % of control

COc1ccc(C(OC/C=C(\C)CCC=C(C)C)OC/C=C(\C)CCC=C(C)C)cc1
T/C (endpoint: mean survival time, dose: 12.5 mg/kg/injection, schedule: Q01DX009 (ip), vehicle: other): 90 % of control | T/C (endpoint: mean survival time, dose: 25.0 mg/kg/injection, schedule: Q01DX009 (ip), vehicle: other): 90 % of control | T/C (endpoint: mean survival time, dose: 50.0 mg/kg/injection, schedule: Q01DX009 (ip), vehicle: other): 90 % of control | T/C (endpoint: mean survival time, dose: 100.0 mg/kg/injection, schedule: Q01DX009 (ip), vehicle: other): 95 % of control | T/C (endpoint: mean survival time, dose: 200.0 mg/kg/injection, schedule: Q01DX009 (ip), vehicle: other): 95 % of control

O=S(=O)(Nc1c2ccccc2c(NS(=O)(=O)c2ccccc2)c2ccccc12)c1ccccc1
T/C (endpoint: mean survival time, dose: 25.0 mg/kg/injection, schedule: Q01DX001 (ip), vehicle: saline sonified): 96 % of control | T/C (endpoint: mean survival time, dose: 50.0 mg/kg/injection, schedule: Q01DX001 (ip), vehicle: saline sonified): 90 % of control | T/C (endpoint: mean survival time, dose: 100.0 mg/kg/injection, schedule: Q01DX001 (ip), vehicle: saline sonified): 95 % of control

O=S(=O)(O)c1ccccc1.O=S(=O)(O)c1ccccc1.[NH-]C1CCCCC1[NH-].[Pt+2]
T/C (endpoint: mean survival time, dose: 1.0 mg/kg/injection, schedule: Q01DX009 (ip), vehicle: dextrose): 220 % of control | T/C (endpoint: mean survival time, dose: 1.0 mg/kg/injection, schedule: Q04DX003 (ip), vehicle: other): 170 % of control | T/C (endpoint: mean survival time, dose: 2.0 mg/kg/injection, schedule: Q04DX003 (ip), vehicle: other): 218 % of control | T/C (endpoint: mean survival time, dose: 4.0 mg/kg/injection, schedule: Q01DX001 (ip), vehicle: dextrose): 155 % of control | T/C (endpoint: mean survival time, dose: 4.0 mg/kg/injection, schedule: Q04DX003 (ip), vehicle: dextrose): 221 % of control | T/C (endpoint: mean survival time, dose: 6.0 mg/kg/injection, schedule: Q04DX003 (ip), vehicle: dextrose): 200 % of control | T/C (endpoint: mean survival time, dose: 6.0 mg/kg/injection, schedule: Q04DX003 (ip), vehicle: other): 119 % of control | T/C (endpoint: mean survival time, dose: 8.0 mg/kg/injection, schedule: Q01DX001 (ip), vehicle: dextrose): 155 % of control | T/C (endpoint: mean survival time, dose: 8.0 mg/kg/injection, schedule: Q04DX003 (ip), vehicle: dextrose): 191 % of control | T/C (endpoint: mean survival time, dose: 12.0 mg/kg/injection, schedule: Q01DX001 (ip), vehicle: dextrose): 196 % of control | T/C (endpoint: mean survival time, dose: 16.0 mg/kg/injection, schedule: Q01DX001 (ip), vehicle: dextrose): 152 % of control and 303 % of control | T/C (endpoint: mean survival time, dose: 24.0 mg/kg/injection, schedule: Q01DX001 (ip), vehicle: dextrose): 262 % of control

NC1CCCCCCC1O (centres undefined)
T/C (endpoint: mean survival time, dose: 5.0 mg/kg/injection, schedule: Q01DX001 (ip), vehicle: saline sonified): 114 % of control | T/C (endpoint: mean survival time, dose: 10.0 mg/kg/injection, schedule: Q01DX001 (ip), vehicle: saline sonified): 92 % of control | T/C (endpoint: mean survival time, dose: 20.0 mg/kg/injection, schedule: Q01DX001 (ip), vehicle: saline sonified): 100 % of control

Reference: PubChem BioAssay AID256 (DTP/NCI, 2004)
